According to patent US20160374985A1, “Bioactivity proanthocyanidin compound isolated from Lasia spinosa (L.) Thwait” (Hong Kong Baptist University, priority 2015, published 2016):
Converted amounts (≈) assume the structure as drawn.

What was measured:
[1] = system: DSS-induced colitis; test: DSS-induced colitis mouse model; format: in vivo, C57BL/6 mice
Text: 7-week-old male C57BL/6 mice weighing about 20-22 g were purchased from the Laboratory Animal Services Center, the Chinese University of Hong Kong. The study protocols were approved by the committee for Care of Laboratory Animals in the School of Chinese Medicine at the Hong Kong Baptist University.
The animals were randomly assigned into five groups (n=8). Mice in the control group were supplied with distilled water whereas all other experimental groups were given 2.0% (w/v) dextran sulphate sodium (DSS) for 5 days. Thereafter, the mice of the DSS, SASP-treated (200 mg/kg/day) and PA1 (10 or 30 mg/kg/day)-treated groups were administered by gavage with saline, SASP or PA1 from day 6 to day 13, respectively.
The DAI was determined by scoring changes in the body weight, diarrhea, colon length, and bleeding.
The colons were dissected longitudinally, gently washed with ice-cold phosphate buffer saline (PBS), fixed in 4% paraformaldehyde overnight, and embedded in paraffin. Each of five-micro-meter sections was stained with hematoxylin/eosin according to a standard procedure to evaluate colonic damage.
Myeloperoxidase (MPO) is an enzyme mainly released by neutrophil, and its activity is directly associated with the severity of inflammation in a given tissue. In the present invention, MPO activity was measured as described in the inventor's earlier publication (Mu, H. X., et al., Anti-inflammatory Actions of (|)-3′alpha-Angeloxy-4′-keto-3′,4′-dihydroseselin (Pd-Ib) against Dextran Sulfate Sodium-Induced Colitis in C57BL/6 Mice. J Nat Prod, 2016). The results were normalized to the wet weight of colon tissue and quantified as units/g tissue.

[2] = system: KYSE-150 cells; test: MTT cell viability, KYSE-150; format: cell-based, human; settings: 6.25 μg/mL
Experimental: (§1) Murine RAW264.7 macrophages and human esophageal cancer cell lines KYSE-70, KYSE-150, KYSE-410, KYSE-520 were maintained in RPMI 1640 or DMEM medium supplemented with 100 U/mL penicillin, 100 μg/mL streptomycin and 10% FBS in an incubator at 37° C. with a humidified atmosphere of 5% CO2. Cells were sub-cultured every three days at a dilution of 1:6. In the present invention, PA1 was dissolved in dimethyl sulfoxide (DMSO) to make stock solutions which were further diluted in culture medium for this experiment. Cells were seeded in a 96-well plate (3×10^3 cells/well) and allowed to attach to the plate overnight. After the recovery, cells were treated with 1.56, 3.125, 6.25, 12.5, 25, 50 μg/mL of PA1 in culture medium for 48 h. Then, 20 μL of MTT (5 mg/mL stock in PBS) per well was added into the medium (200 μL) and incubated for 4 h at 37° C. Finally, the culture medium was removed and 200 μL of DMSO were added to dissolve the purple formazan crystals. Absorbance of the solution was measured using a microplate reader spectrophotometer (Bio-Rad Laboratories, Inc., Hercules, Calif.) at a wavelength of 570 nm.

[3] = system: RAW264.7 macrophages; test: Cell viability of RAW macrophages; format: cell-based, murine; settings: RAW cells, 1.56-50 μg/mL, 20 hours
Experimental: as §1, with “After the recovery, cells were treated with 1.56, 3.125, 6.25, 12.5, 25, 50 μg/mL of PA1 in culture medium for 48 h.” left out

[4] = system: KYSE-150 cells; test: Wound healing assay; format: cell-based, human; settings: PA1 6.25 μg/mL, 72 hours
Experimental: (§2) Murine RAW264.7 macrophages and human esophageal cancer cell lines KYSE-70, KYSE-150, KYSE-410, KYSE-520 were maintained in RPMI 1640 or DMEM medium supplemented with 100 U/mL penicillin, 100 μg/mL streptomycin and 10% FBS in an incubator at 37° C. with a humidified atmosphere of 5% CO2. Cells were sub-cultured every three days at a dilution of 1:6.
6×10^4 cell/well were seeded in 12 well-plate at 30% confluence in completed medium. After 24 hours seeding, the monolayer was wounded by scoring with a sterile plastic tip (1 mL), then washed twice with PBS to remove cell debris and then incubated in a conditioned medium in the absence or presence of PA1 at 6.25 μg/mL for various periods of time up to 72 hours. Cell migration into the wound surface was monitored by Olympus IX71 microscopy and digitally photographed.
In addition, wound-healing assay was used to test whether those compounds could affect cell motility. A confluent monolayer of KYSE-150 cells was scratched to form a wound and incubated in the absence or presence of PA1 at 6.25 μg/mL. The results obtained were compared to that of controls.

[5] = system: LPS-stimulated RAW264.7 macrophages; test: Nitric oxide production determination (Griess reagent); format: cell-based, murine; settings: LPS 100 ng/mL, PA1 1.56-50 μg/mL, vs LPS-alone
Experimental: Murine RAW264.7 macrophages and human esophageal cancer cell lines KYSE-70, KYSE-150, KYSE-410, KYSE-520 were maintained in RPMI 1640 or DMEM medium supplemented with 100 U/mL penicillin, 100 μg/mL streptomycin and 10% FBS in an incubator at 37° C. with a humidified atmosphere of 5% CO2. Cells were sub-cultured every three days at a dilution of 1:6. Nitric oxide (NO) production was indirectly assessed by measuring the nitrite levels in the cultured medium determined by a colorimetric method based on the Griess reagent. The cells were co-treated with various concentrations of PA1 in the absence or presence of LPS (100 ng/mL) at 37° C. for 24 hours. Then, 100 μL of each supernatant was mixed with the equal volume of Griess reagent incubated at room temperature for 15 minutes; meanwhile, sodium nitrite was used as a standard substance. The optical densities were measured at 540 nm with a micro-plate reader.

[6] = system: KYSE-450 cells; test: MTT cytotoxicity assay; format: cell-based; settings: Homo sapiens, 48 h
Experimental: as §2
as §1, with “In” for “Murine RAW264.7 macrophages and human esophageal cancer cell lines KYSE-70, KYSE-150, KYSE-410, KYSE-520 were maintained in RPMI 1640 or DMEM medium supplemented with 100 U/mL penicillin, 100 μg/mL streptomycin and 10% FBS in an incubator at 37° C. with a humidified atmosphere of 5% CO2. Cells were sub-cultured every three days at a dilution of 1:6. In”
To determine the cytotoxic effect of PA1 against human esophagus cancer cells (KYSE-70, KYSE-150, KYSE-450 and KYSE-520 cell lines), MTT (3-[4,5-dimethylthiazol-2-yl]-2,5-diphenyltetrazolium bromide) assay was performed.

[7] = mice, 2% DSS, PA1 10 or 30 mg/kg/day by gavage day 6-13

Question: What does the source list for `Oc1cc(O)c2c(c1)OC1(c3ccc(O)c(O)c3)Oc3cc(O)c4c(c3C2C1O)OC(c1ccc(O)c(O)c1)[C@@H](O)C4` (some centres unmarked) [PA1, proanthocyanidin A1]?
Answer: Colonic MPO activity ([1]; colon homogenates, day 14, vs DSS group): significantly lower the MPO activity; Histological manifestation of colon (H&E) ([1]; mice, 2% DSS, PA1 10 or 30 mg/kg, vs DSS group): reduction in mucosal ulceration, crypt damage, edema, and cell infiltration into mucosal tissue; Disease activity index (DAI) score [1, 7]: clinical improvement; Mortality [1, 7]: decreased; Body weight loss ([1]; mice, 2% DSS, PA1 10 or 30 mg/kg/day by gavage day 6-13, vs DSS group): reduced body weight loss; Shortening of colon length ([1]; mice, 2% DSS, PA1 10 or 30 mg/kg/day by gavage, day 14): rectified; Cell viability [2]: did not alter the cells viability; Cell viability [3]: did not alter the cells viability; Cell migration into the wound [4]: did not migrate into the wound; NO production [5]: significant inhibition of NO production; IC50 [6]: 48.6 µg/mL (≈ 84.4 µM)
